Drawing on ChEMBL document CHEMBL1152991, “Tetracycline resistance in Ureaplasma spp. and Mycoplasma hominis: prevalence in Bordeaux, France, from 1999 to 2002 and description of two tet(M)-positive isolates of M. hominis susceptible to tetracyclines” (2008), this text covers MIC for 3 compounds.

In general, MIC refers to the smallest concentration in the dilution series that meets the test's criterion for growth inhibition.

≈ marks a conversion by molar mass, not a printed value. A value given as a limit tells only on which side of the number the result lay.

Holding throughout (type): functional
Test [1] relates to Metamycoplasma hominis. In words: Antimicrobial activity against tetracycline-susceptible Mycoplasma hominis isolate 3430 expressing tet(M) gene after 3 passages of drug treatment.
Test [2] deals with Metamycoplasma hominis. Nature of the test: Antimicrobial activity against tetracycline-resistant Mycoplasma hominis isolate overexpressing tet(M) gene.
Test [3] relates to Metamycoplasma hominis. In words: Antimicrobial activity against tetracycline-susceptible Mycoplasma hominis isolate 3425 expressing tet(M) gene after 20 passages of drug treatment.
In test [4] the test system is Ureaplasma. In words: Antimicrobial activity against tetracycline-resistant Ureaplasma sp. isolate overexpressing tet(M) gene.
Test [5] has as its system Metamycoplasma hominis. In words: Antimicrobial activity against tetracycline-susceptible Mycoplasma hominis isolate 3430 expressing tet(M) gene after 10 passages of drug treatment.

Turning to `C[C@H]1c2cccc(O)c2C(=O)C2=C(O)[C@]3(O)C(=O)C(C(N)=O)=C(O)[C@@H](N(C)C)[C@@H]3[C@@H](O)[C@@H]21.O` [DOXYCYCLINE], the MIC was 0.12 µg/mL in test [1]; 32 µg/mL in test [2]; 0.12 µg/mL in test [3]; more than 32 µg/mL in test [4]; 32 µg/mL in test [5].
`CN(C)c1ccc(O)c2c1C[C@H]1C[C@H]3[C@H](N(C)C)C(O)=C(C(N)=O)C(=O)[C@@]3(O)C(O)=C1C2=O` [MINOCYCLINE]: the MIC in test [2] is 32 µg/mL (≈ 69.9 µM); in test [4], more than 32 µg/mL.
Turning to `CN(C)[C@@H]1C(O)=C(C(N)=O)C(=O)[C@@]2(O)C(O)=C3C(=O)c4c(O)cccc4[C@@](C)(O)[C@H]3C[C@@H]12` [TETRACYCLINE], the MIC is 32 µg/mL (≈ 72 µM) in test [2] and more than 32 µg/mL in test [4].
